# Measured values published in PubChem BioAssay AID2060512 (Molecular Pharmacology Branch, DTP, NCI, 2025).
# System: 186277-243-T-J2-PDC complex spheroid viability
# Assay: Anticancer human tumor 186277-243-T-J2-PDC patient-derived colon adenocarcinoma cell line growth inhibition [GQUAD]
# Conditions: for IC50: curve of first compound; for viability, T/C: stronger effect = lower value
# Outline: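 Multi-cell-type spheroids of tumor cells with HUVEC and mesenchymal stem cells, treated with drug combinations. Concentrations descend in half-log steps from near clinical Cmax, or from 10 microM where Cmax is unknown; viability read-out.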
# [1] = second compound 0.0316 µM, first compound 0.000999 µM
# [2] = second compound 0.0316 µM, first compound 0.00316 µM
# [3] = second compound 0.0316 µM, first compound 0.00999 µM
# [4] = second compound 0.0316 µM, first compound 0.0316 µM
# [5] = second compound 0.0316 µM, first compound 0.0999 µM
# [6] = second compound 0.0316 µM, first compound 0.316 µM
# [7] = second compound 0.1 µM, first compound 0.000999 µM
# [8] = second compound 0.1 µM, first compound 0.00316 µM
# [9] = second compound 0.1 µM, first compound 0.00999 µM
# [10] = second compound 0.1 µM, first compound 0.0316 µM
# [11] = second compound 0.1 µM, first compound 0.0999 µM
# [12] = second compound 0.1 µM, first compound 0.316 µM
# [13] = second compound 0.316 µM, first compound 0.000999 µM
# [14] = second compound 0.316 µM, first compound 0.00316 µM
# [15] = second compound 0.316 µM, first compound 0.00999 µM
# [16] = second compound 0.316 µM, first compound 0.0316 µM
# [17] = second compound 0.316 µM, first compound 0.0999 µM
# [18] = second compound 0.316 µM, first compound 0.316 µM
# [19] = second compound 1 µM, first compound 0.000999 µM
# [20] = second compound 1 µM, first compound 0.00316 µM
# [21] = second compound 1 µM, first compound 0.00999 µM
# [22] = second compound 1 µM, first compound 0.0316 µM
# [23] = second compound 1 µM, first compound 0.0999 µM
# [24] = second compound 1 µM, first compound 0.316 µM
# [25] = second compound 3.16 µM, first compound 0.000999 µM
# [26] = second compound 3.16 µM, first compound 0.00316 µM
# [27] = second compound 3.16 µM, first compound 0.00999 µM
# [28] = second compound 3.16 µM, first compound 0.0316 µM
# [29] = second compound 3.16 µM, first compound 0.0999 µM
# [30] = second compound 3.16 µM, first compound 0.316 µM
# [31] = second compound 10 µM, first compound 0.000999 µM
# [32] = second compound 10 µM, first compound 0.00316 µM
# [33] = second compound 10 µM, first compound 0.00999 µM
# [34] = second compound 10 µM, first compound 0.0316 µM
# [35] = second compound 10 µM, first compound 0.0999 µM
# [36] = second compound 10 µM, first compound 0.316 µM
# [37] = second compound 0.0316 µM, first compound 0.1 µM
# [38] = second compound 0.0316 µM, first compound 1 µM
# [39] = second compound 0.0316 µM, first compound 3.16 µM
# [40] = second compound 0.0316 µM, first compound 10 µM
# [41] = second compound 0.1 µM, first compound 0.1 µM
# [42] = second compound 0.1 µM, first compound 1 µM
# [43] = second compound 0.1 µM, first compound 3.16 µM
# [44] = second compound 0.1 µM, first compound 10 µM
# [45] = second compound 0.316 µM, first compound 0.1 µM
# [46] = second compound 0.316 µM, first compound 1 µM
# [47] = second compound 0.316 µM, first compound 3.16 µM
# [48] = second compound 0.316 µM, first compound 10 µM
# [49] = second compound 1 µM, first compound 0.1 µM
# [50] = second compound 1 µM, first compound 1 µM
# [51] = second compound 1 µM, first compound 3.16 µM
# [52] = second compound 1 µM, first compound 10 µM
# [53] = second compound 3.16 µM, first compound 0.1 µM
# [54] = second compound 3.16 µM, first compound 1 µM
# [55] = second compound 3.16 µM, first compound 3.16 µM
# [56] = second compound 3.16 µM, first compound 10 µM
# [57] = second compound 10 µM, first compound 0.1 µM
# [58] = second compound 10 µM, first compound 1 µM
# [59] = second compound 10 µM, first compound 3.16 µM
# [60] = second compound 10 µM, first compound 10 µM
# 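Note: spheroids exposed to drugs for 7 days.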
# 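Throughout, for viability, T/C: 100% = DMSO vehicle control viability.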
compound,measurement,setting,value
CCc1c2c(nc3ccc(O)cc13)-c1cc3c(c(=O)n1C2)COC(=O)[C@]3(O)CC + CN(C)c1ccc(Nc2c3ccc(NC(=O)CCN4CCCC4)cc3nc3cc(NC(=O)CCN4CCCC4)ccc23)cc1,IC50,second compound 0.0316 µM,5.9 nM
same,IC50,second compound 0.1 µM,6.26 nM
same,IC50,second compound 0.316 µM,6.31 nM
same,IC50,second compound 1 µM,5.78 nM
same,IC50,second compound 3.16 µM,7.75 nM
same,IC50,second compound 10 µM,7.5 nM
same,"viability, T/C",[1],97.1%
same,"viability, T/C",[2],62.1%
same,"viability, T/C",[3],40.6%
same,"viability, T/C",[4],23.8%
same,"viability, T/C",[5],17.1%
same,"viability, T/C",[6],13.1%
same,"viability, T/C",[7],99.8%
same,"viability, T/C",[8],60.1%
same,"viability, T/C",[9],44.3%
same,"viability, T/C",[10],25.8%
same,"viability, T/C",[11],15.8%
same,"viability, T/C",[12],11.6%
same,"viability, T/C",[13],107%
same,"viability, T/C",[14],69%
same,"viability, T/C",[15],36%
same,"viability, T/C",[16],23.7%
same,"viability, T/C",[17],15.7%
same,"viability, T/C",[18],11.1%
same,"viability, T/C",[19],82.9%
same,"viability, T/C",[20],59.7%
same,"viability, T/C",[21],41.6%
same,"viability, T/C",[22],25.4%
same,"viability, T/C",[23],15.8%
same,"viability, T/C",[24],10.4%
same,"viability, T/C",[25],92.8%
same,"viability, T/C",[26],63.4%
same,"viability, T/C",[27],49.4%
same,"viability, T/C",[28],27.1%
same,"viability, T/C",[29],16.3%
same,"viability, T/C",[30],8.68%
same,"viability, T/C",[31],83%
same,"viability, T/C",[32],63.1%
same,"viability, T/C",[33],45.5%
same,"viability, T/C",[34],31.4%
same,"viability, T/C",[35],16.4%
same,"viability, T/C",[36],9.38%
Cc1cccc(N(C)C(=O)C2C(O)CCN2c2nc(C)cc(C(F)(F)F)c2C#N)c1 (stereo not drawn) + CN(C)c1ccc(Nc2c3ccc(NC(=O)CCN4CCCC4)cc3nc3cc(NC(=O)CCN4CCCC4)ccc23)cc1,IC50,second compound 0.0316 µM,> 10000 nM
same,IC50,second compound 0.1 µM,> 10000 nM
same,IC50,second compound 0.316 µM,> 10000 nM
same,IC50,second compound 1 µM,> 10000 nM
same,IC50,second compound 3.16 µM,> 10000 nM
same,IC50,second compound 10 µM,> 10000 nM
same,"viability, T/C",[4],88.8%
same,"viability, T/C",[37],99.5%
same,"viability, T/C",[6],115%
same,"viability, T/C",[38],109%
same,"viability, T/C",[39],105%
same,"viability, T/C",[40],100%
same,"viability, T/C",[10],94.1%
same,"viability, T/C",[41],105%
same,"viability, T/C",[12],94.9%
same,"viability, T/C",[42],91.8%
same,"viability, T/C",[43],108%
same,"viability, T/C",[44],88.7%
same,"viability, T/C",[16],81%
same,"viability, T/C",[45],107%
same,"viability, T/C",[18],98.9%
same,"viability, T/C",[46],97.6%
same,"viability, T/C",[47],102%
same,"viability, T/C",[48],104%
same,"viability, T/C",[22],97.1%
same,"viability, T/C",[49],93.2%
same,"viability, T/C",[24],98.9%
same,"viability, T/C",[50],101%
same,"viability, T/C",[51],102%
same,"viability, T/C",[52],114%
same,"viability, T/C",[28],86.4%
same,"viability, T/C",[53],91.7%
same,"viability, T/C",[30],106%
same,"viability, T/C",[54],118%
same,"viability, T/C",[55],83%
same,"viability, T/C",[56],110%
same,"viability, T/C",[34],88.6%
same,"viability, T/C",[57],104%
same,"viability, T/C",[36],93.7%
same,"viability, T/C",[58],120%
same,"viability, T/C",[59],98.2%
same,"viability, T/C",[60],75.6%
Cn1ncnc1[C@H]1c2n[nH]c(=O)c3cc(F)cc(c23)N[C@@H]1c1ccc(F)cc1 + CN(C)c1ccc(Nc2c3ccc(NC(=O)CCN4CCCC4)cc3nc3cc(NC(=O)CCN4CCCC4)ccc23)cc1,IC50,second compound 0.0316 µM,> 316 nM
same,IC50,second compound 0.1 µM,> 316 nM
same,IC50,second compound 0.316 µM,> 316 nM
same,IC50,second compound 1 µM,> 316 nM
same,IC50,second compound 3.16 µM,> 316 nM
same,IC50,second compound 10 µM,> 316 nM
same,"viability, T/C",[1],91.8%
same,"viability, T/C",[2],104%
same,"viability, T/C",[3],108%
same,"viability, T/C",[4],80.6%
same,"viability, T/C",[5],86.6%
same,"viability, T/C",[6],76.8%
same,"viability, T/C",[7],108%
same,"viability, T/C",[8],113%
same,"viability, T/C",[9],96.2%
same,"viability, T/C",[10],114%
same,"viability, T/C",[11],90.2%
same,"viability, T/C",[12],82%
same,"viability, T/C",[13],83.8%
same,"viability, T/C",[14],108%
same,"viability, T/C",[15],102%
same,"viability, T/C",[16],115%
same,"viability, T/C",[17],92.1%
same,"viability, T/C",[18],86.8%
same,"viability, T/C",[19],105%
same,"viability, T/C",[20],91.8%
same,"viability, T/C",[21],97.6%
same,"viability, T/C",[22],106%
same,"viability, T/C",[23],85.6%
same,"viability, T/C",[24],85%
same,"viability, T/C",[25],101%
same,"viability, T/C",[26],94.7%
same,"viability, T/C",[27],107%
same,"viability, T/C",[28],94%
same,"viability, T/C",[29],85.5%
same,"viability, T/C",[30],94.6%
same,"viability, T/C",[31],114%
same,"viability, T/C",[32],92.3%
same,"viability, T/C",[33],99.2%
same,"viability, T/C",[34],106%
same,"viability, T/C",[35],83.6%
same,"viability, T/C",[36],82%
O=C(c1cc(Cc2n[nH]c(=O)c3ccccc23)ccc1F)N1CCN(C(=O)C2CC2)CC1 + CN(C)c1ccc(Nc2c3ccc(NC(=O)CCN4CCCC4)cc3nc3cc(NC(=O)CCN4CCCC4)ccc23)cc1,IC50,second compound 0.0316 µM,> 10000 nM
same,IC50,second compound 0.1 µM,> 10000 nM
same,IC50,second compound 0.316 µM,> 10000 nM
same,IC50,second compound 1 µM,> 10000 nM
same,IC50,second compound 3.16 µM,> 10000 nM
same,IC50,second compound 10 µM,> 10000 nM
same,"viability, T/C",[4],116%
same,"viability, T/C",[37],122%
same,"viability, T/C",[6],115%
same,"viability, T/C",[38],93.5%
same,"viability, T/C",[39],81.8%
same,"viability, T/C",[40],70.2%
same,"viability, T/C",[10],117%
same,"viability, T/C",[41],118%
same,"viability, T/C",[12],115%
same,"viability, T/C",[42],99%
same,"viability, T/C",[43],103%
same,"viability, T/C",[44],53.5%
same,"viability, T/C",[16],97.7%
same,"viability, T/C",[45],111%
same,"viability, T/C",[18],102%
same,"viability, T/C",[46],95.1%
same,"viability, T/C",[47],111%
same,"viability, T/C",[48],63.4%
same,"viability, T/C",[22],98.2%
same,"viability, T/C",[49],100%
same,"viability, T/C",[24],105%
same,"viability, T/C",[50],110%
same,"viability, T/C",[51],89.9%
same,"viability, T/C",[52],75.9%
same,"viability, T/C",[28],90.4%
same,"viability, T/C",[53],109%
same,"viability, T/C",[30],95.3%
same,"viability, T/C",[54],100%
same,"viability, T/C",[55],78.7%
same,"viability, T/C",[56],64.5%
same,"viability, T/C",[34],105%
same,"viability, T/C",[57],116%
same,"viability, T/C",[36],120%
same,"viability, T/C",[58],111%
same,"viability, T/C",[59],95.9%
same,"viability, T/C",[60],54.9%
